According to patent US20060069132A1, “Azolecarboxamide herbicides” (priority 2004, published 2006):

Tests used:
wild oat = assay: Test B postemergence herbicide test; format: in vivo, Avena fatua; conditions: scale 0 (no effect) to 100 (complete control)
Summary of the method: (§1)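 Treated at 2-leaf (paddy) or 1–4-leaf, 2–18 cm (postemergence); greenhouse 13–15 d; visual score vs control, 0 none to 100 complete control; dash = not tested.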

rice [1] = assay: Test C flooded paddy test; format: in vivo, Oryza sativa
Summary of the method: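 Plants were grown to the 1- to 4-leaf stage (2–18 cm) and then treated postemergence, or grown to the 2-leaf stage for the flooded paddy test. They were held in a greenhouse for 12 to 14 days and then scored by eye against controls, where 0 is no effect and 100 is complete control.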

barnyardgrass [2] = assay: Test B pre-/postemergence herbicide test; format: in vivo, Echinochloa crus-galli; conditions: for Barnyardgrass plant response rating: postemergence
Summary of the method: (§2)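 Species tested were Echinochloa crus-galli, Ipomoea coccinea, Xanthium strumarium and Oryza sativa, treated both before emergence and at the 1- to 4-leaf stage; rice and barnyardgrass were also tested under flooding at 2 leaves. Greenhouse incubation lasted 13–15 days before visual 0–100 scoring.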

corn = assay: Test B pre-/postemergence herbicide test; format: in vivo, Zea mays; conditions: for Corn plant response rating: postemergence
Summary of the method: (§3)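 Evaluation is visual, comparing treated with control plants on a scale where 0 means no effect and 100 means full control. Treatments were preemergence, or postemergence on seedlings 2–18 cm tall, and held 13–15 days in the greenhouse.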

barnyardgrass [3] = assay: Test B flooded paddy test; format: in vivo, Echinochloa crus-galli; conditions: 1000 g ai/ha, scale 0 to 100 (0 no effect, 100 complete control)
Summary of the method: (§4)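 Plants grow to 1- to 4-leaf stage (2–18 cm) for postemergence spraying, or to 2-leaf stage for the paddy test. Formulated compound is applied. Greenhouse holding lasts 13–15 days. Response is scored visually relative to controls, 0 no effect to 100 complete control; a dash means no result.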

cocklebur = assay: Test B pre-/postemergence herbicide test; format: in vivo, Xanthium strumarium; conditions: for Cocklebur plant response rating: postemergence
Summary of the method: as §2

giant foxtail = assay: Test B pre-/postemergence herbicide test; format: in vivo, Setaria faberi; conditions: for Foxtail, Giant plant response rating: postemergence
Summary of the method: as §3

blackgrass = assay: Test B postemergence herbicide test; format: in vivo, Alopecurus myosuroides; conditions: postemergence
Summary of the method: as §4

morningglory = assay: Test B pre-/postemergence herbicide test; format: in vivo, Ipomoea coccinea; conditions: for Morningglory plant response rating: scale 0 (no effect) to 100 (complete control)
Summary of the method: as §2

lambsquarters = assay: Test B pre-/postemergence herbicide test; format: in vivo, Chenopodium album; conditions: for Lambsquarters plant response rating: scale 0 (no effect) to 100 (complete control)
Summary of the method: as §3

Surinam grass = assay: Test B pre-/postemergence herbicide test; format: in vivo, Urochloa decumbens; conditions: for Surinam Grass plant response rating: scale 0 (no effect) to 100 (complete control)
Summary of the method: as §3

barnyardgrass [4] = assay: Test C flooded paddy test; format: in vivo, Echinochloa crus-galli
Summary of the method: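 After a postemergence application at 1 to 4 leaves (plants 2–18 cm high), or at 2 leaves for barnyardgrass in flooded paddy, plants stayed in the greenhouse for 12 to 14 days. Damage was then judged visually relative to control plants, with 100 indicating complete control.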

[5] = tested on: small flower umbrella sedge; assay: Test B flooded paddy test; format: in vivo, Cyperus difformis; conditions: 1000 g ai/ha, scale 0 to 100 (0 no effect, 100 complete control)
Summary of the method: as §4

pigweed = assay: Test B pre-/postemergence herbicide test; format: in vivo, Amaranthus retroflexus; conditions: for Pigweed plant response rating: scale 0 (no effect) to 100 (complete control)
Summary of the method: as §3

large crabgrass = assay: Test B pre-/postemergence herbicide test; format: in vivo, Digitaria sanguinalis; conditions: for Crabgrass, Large plant response rating: postemergence
Summary of the method: as §3

velvetleaf = assay: Test B pre-/postemergence herbicide test; format: in vivo, Abutilon theophrasti; conditions: for Velvetleaf plant response rating: scale 0 (no effect) to 100 (complete control)
Summary of the method: as §3

ducksalad [6] = assay: Test B flooded paddy test; format: in vivo, Heteranthera limosa; conditions: 1000 g ai/ha, scale 0 to 100 (0 no effect, 100 complete control)
Summary of the method: as §4

[7] = tested on: smallflower umbrella sedge; assay: Test C flooded paddy test; format: in vivo, Cyperus difformis
ducksalad [8] = assay: Test C flooded paddy test; format: in vivo, Heteranthera limosa
rice [9] = assay: Test B flooded paddy test; format: in vivo, Oryza sativa; conditions: 1000 g ai/ha, scale 0 to 100 (0 no effect, 100 complete control)
Summary of the method: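 Each value is a visual 0–100 response rating taken against controls 13 to 15 days after treatment in the greenhouse. Plants received formulated chemical postemergence at the 1- to 4-leaf stage or, in flooded paddy, at the 2-leaf stage.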

wheat = assay: Test B postemergence herbicide test; format: in vivo, Triticum aestivum; design: key to Wheat plant response rating: 0 = no effect, 100 = complete control
Summary of the method: as §1

[10] = 125 g ai/ha, visual rating, postemergence
[11] = 125 g ai/ha, scale 0 to 100 (0 no effect, 100 complete control)
[12] = 250 g ai/ha, scale of 0 to 100, 0 is no effect, 100 is complete control
[13] = 500 g ai/ha, visual rating after 12 to 14 days, scale 0 to 100 (0 no effect, 100 complete control)
[14] = 125 g ai/ha, 0 is no effect, 100 is complete control, preemergence
[15] = 125 g ai/ha, visual rating, scale 0 (no effect) to 100 (complete control)
[16] = 500 g ai/ha, scale 0 to 100, 0 is no effect, 100 is complete control

CCc1nn(C(C)(C)CC)nc1C(=O)Nc1cccc(C(=O)N2CC=CC2)c1 [Compound 369]
60: Rice plant response rating (rice [1]; [11]) | Rice plant response rating (rice [1]; [12]) | Pigweed plant response rating (pigweed; Postemergence, 500 g ai/ha) | Velvetleaf plant response rating (velvetleaf; Postemergence, 500 g ai/ha) | Rice plant response rating (rice [9])
80: Sedge, Umbrella plant response rating [5] | Plant response rating (0 to 100 scale), Pigweed (pigweed; [14]) | Ducksalad plant response rating (ducksalad [8]; 62 g ai/ha, scale 0 to 100) | Ducksalad plant response rating (ducksalad [8]; [11]) | Ducksalad plant response rating (ducksalad [8]; [12]) | Plant response rating, Ducksalad (ducksalad [8]; [13])
100: Plant response rating (0 to 100 scale), Lambsquarters (lambsquarters; [14])
30: Oat, Wild plant response rating (wild oat; Postemergence, 500 g ai/ha) | Plant response rating (0 to 100 scale), Barnyardgrass (barnyardgrass [2]; [14]) | Foxtail, Giant plant response rating (giant foxtail; [16]) | Blackgrass plant response rating (blackgrass; [16]) | Pigweed plant response rating (pigweed; [10])
0: Plant response rating (0 to 100 scale), Cocklebur (cocklebur; [14]) | Blackgrass plant response rating (blackgrass; [15]) | Plant response rating (0 to 100 scale), Morningglory (morningglory; [14]) | Morningglory plant response rating (morningglory; [10]) | Plant response rating (0 to 100 scale), Surinam Grass (Surinam grass; [14]) | Plant response rating (0 to 100 scale), Velvetleaf (velvetleaf; [14]) | Wheat plant response rating (wheat; 125 g ai/ha, visual rating, scale 0 (no effect) to 100 (complete control), postemergence) | Wheat plant response rating (wheat; 500 g ai/ha, scale 0 to 100, 0 no effect, 100 complete control, preemergence) | Wheat plant response rating (wheat; Postemergence, 500 g ai/ha, scale 0 (no effect) to 100 (complete control))
75: Sedge, Umbrella plant response rating ([7]; 62 g ai/ha, scale 0 to 100) | Sedge, Umbrella plant response rating [7, 11]
65: Plant response rating, Rice (rice [1]; [13]) | Plant response rating, Barnyardgrass (barnyardgrass [4]; [13])
90: Ducksalad plant response rating (ducksalad [6])
55: Rice plant response rating (rice [1]; 62 g ai/ha, scale 0 to 100)
50: Barnyardgrass plant response rating (barnyardgrass [3]) | Barnyardgrass plant response rating (barnyardgrass [4]; [12])
10: Barnyardgrass plant response rating (barnyardgrass [2]; [15]) | Corn plant response rating (corn; [15]) | Corn plant response rating (corn; [16]) | Surinam Grass plant response rating (Surinam grass; [10]) | Surinam Grass plant response rating (Surinam grass; Postemergence, 500 g ai/ha) | Barnyardgrass plant response rating (barnyardgrass [4]; 62 g ai/ha, scale 0 to 100 (0 no effect, 100 complete control)) | Crabgrass, Large plant response rating (large crabgrass; [15]) | Velvetleaf plant response rating (velvetleaf; [10])
45: Barnyardgrass plant response rating (barnyardgrass [4]; [11])
85: Sedge, Umbrella plant response rating [7, 12]
70: Cocklebur plant response rating (cocklebur; [16]) | Lambsquarters plant response rating (lambsquarters; Postemergence, 500 g ai/ha)
20: Oat, Wild plant response rating (wild oat; [10]) | Barnyardgrass plant response rating (barnyardgrass [2]; [16]) | Plant response rating (0 to 100 scale), Corn (corn; [14]) | Cocklebur plant response rating (cocklebur; [15]) | Plant response rating (0 to 100 scale), Foxtail, Giant (giant foxtail; [14]) | Foxtail, Giant plant response rating (giant foxtail; [15]) | Morningglory plant response rating (morningglory; Postemergence, 500 g ai/ha) | Lambsquarters plant response rating (lambsquarters; [10]) | Plant response rating (0 to 100 scale), Crabgrass, Large (large crabgrass; [14]) | Crabgrass, Large plant response rating (large crabgrass; [16])
